# Experiments:
# LL2 = experiment: Anti-IL-1β in combination with docetaxel in aggressive lung model (LL2); format: in vivo, mouse
# Protocol: Preclinical Data on the Efficacy of Canakinumab in Combination with Docetaxel in the Treatment of Cancer.
# • I. Tumor models: The role of IL-1β in tumor immunity and efficacy of IL-1β blocking antibodies were tested in the following preclinical models: • Xenograft tumors in humanized mouse models: NSCLC (H358), TNBC (MDA-MB231) and CRC (SW480) • Syngeneic tumor models: TNBC (4T1) and lung (LL-2) cancer • II. […] Combination treatments include chemotherapeutic agent, docetaxel (6.25 mg/Kg QW IV), PD-1 pathway inhibitors (anti-human PD-1, pembrolizumab 10 mg/Kg Q5D IP or anti-mouse PD-1, clone 1D2 10 mg/Kg QW IP) and anti-mouse VEGF blocking antibody (clone 4G3, 5 mg/Kg Q5D) were used in combination with anti-IL-1β antibody. Appropriate isotype controls were used. […] Experimental readouts: activity of therapeutic agents in preclinical models were assessed by the following: • Tumor volume was determined by measurement with calipers throughout the course of the study. Tumor weights in milligrams were determined at end of study • Immunohistochemistry analysis was performed on FFPE NSCLC (H358) xenograft tissue • Changes in immune populations in peripheral blood in CRC (SW480) xenograft humanized model and tumors in syngeneic models (4T1 and LL-2) were assessed by flow cytometry using markers for T cell, myeloid populations
# 4T1 tumors = 4T1 tumors treated with 01BSUR and docetaxel; format: in vivo, Balb/c mice
# Protocol: Treatment of 4T1 Tumors with 01BSUR and Docetaxel Leads to Alterations in the Tumor Microenvironment. Female Balb/c mice with 4T1 tumors implanted subcutaneously (s.c.) on the right flank were treated 8 and 15 days post-tumor implant initiating when the tumors reached about 100 mm^3 with the isotype antibody, docetaxel, 01BSUR, or a combination of docetaxel and 01BSUR. […] 5 days after the first dose, tumors were harvested and analyzed for changes to the infiltrating immune cell populations. This was done again at the end point of the study, 4 days after the second dose.
# (§1) • I. Tumor models: The role of IL-1β in tumor immunity and efficacy of IL-1β blocking antibodies were tested in the following preclinical models: • Xenograft tumors in humanized mouse models: NSCLC (H358), TNBC (MDA-MB231) and CRC (SW480) • Syngeneic tumor models: TNBC (4T1) and lung (LL-2) cancer • II. […] Combination treatments include chemotherapeutic agent, docetaxel (6.25 mg/Kg QW IV), PD-1 pathway inhibitors (anti-human PD-1, pembrolizumab 10 mg/Kg Q5D IP or anti-mouse PD-1, clone 1D2 10 mg/Kg QW IP) and anti-mouse VEGF blocking antibody (clone 4G3, 5 mg/Kg Q5D) were used in combination with anti-IL-1β antibody. Appropriate isotype controls were used. In all experiments, dosing was initiated after tumor implantation. • III. Experimental readouts: activity of therapeutic agents in preclinical models were assessed by the following: • Tumor volume was determined by measurement with calipers throughout the course of the study. Tumor weights in milligrams were determined at end of study • Immunohistochemistry analysis was performed on FFPE NSCLC (H358) xenograft tissue • Changes in immune populations in peripheral blood in CRC (SW480) xenograft humanized model and tumors in syngeneic models (4T1 and LL-2) were assessed by flow cytometry using markers for T cell, myeloid populations
# [1] = test system: HR-positive, HER2-negative advanced breast cancer; details: added to first-line endocrine therapy with tamoxifen/NSAI plus goserelin, pre- and peri-menopausal women; cited from earlier work
# [2] = Gevokizumab clinical pharmacokinetics; format: in vivo, human
# hsCRP = hsCRP change after gevokizumab treatment in type 2 diabetes patients; format: in vivo, human; details: top dose 0.3 mg/kg (~20 mg) Q4W
# Source text: FIG. 12. Clinical data after gevokizumab treatment (panel a) and its extrapolation to higher doses (panels b, c, and d). Adjusted percent change from baseline in hsCRP in patients in a). The hsCRP exposure-response relationship is shown in b) for six different hsCRP base line concentrations.
# SW480 = experiment: CRC SW480 xenograft in humanized BLT mice; format: in vivo, humanized mouse
# Protocol: as §1
# [3] = test system: MDA-MB-231Luc2-TdTomato cells; experiment: Spontaneous human breast cancer metastasis to human bone implants; format: in vivo, NOD SCID mice
# Protocol: FIG. 4. Pharmacological blockade of IL-1B inhibits spontaneous metastasis to human bone in vivo. Female NOD-SCID mice bearing two 0.5 cm^3 pieces of human femoral bone received intra-mammary injections of MDA-MB-231Luc2-TdTomato cells. […] All animals were culled 35 days following tumour cell injection. Effects on bone metastases (a) were assessed in vivo and immediately post-mortem by luciferase imaging and confirmed ex vivo on histological sections. Data are shown as numbers of photons per second emitted 2 minutes following sub-cutaneous injection of D-luciferin. Effects on numbers of tumour cells detected in the circulation are shown in (b). *=P<0.01. **=P<0.001. ***=P<0.0001.
# (§2) To model human breast cancer metastasis to human bone implants two human bone discs were implanted subcutaneously into 10-week old female NOD SCID mice (n=10/group) under isofluorane anaesthetic. Mice received an injection of 0.003 mg vetergesic and Septrin was added to the drinking water for 1 week following bone implantation. Mice were left for 4 weeks before injecting 1×10^5 MDA-MB-231 Luc2-TdTomato, MCF7 Luc2 or T47D Luc2 cells in 20% Martigel/79% PBS/1% toluene blue into the two hind mammary fat pads. Primary tumor growth and development of metastases was monitored weekly using an IVIS […] system (Caliper Life Sciences) following sub-cutaneous injection of 30 mg/ml D-luciferin (Invitrogen). On termination of experiments mammary tumors, circulating tumor cells, serum and bone metastases were resected. RNA was processed for downstream analysis by real time PCR, and cell lysates were taken for protein analysis and whole tissue for histology as previously described (Nutter et al., 2014; Ottewell et al., 2014a). […] Tumor cells, serum, and bone were subsequently resected for downstream analysis. Bone metastases were investigated following injection of 5×10^5 MDA-MB-231 GFP (control), MDA-MB-231-IV, MDA-MB-231-IL-1B-positive or MDA-MB-231-IL-1R1-positive cells into the lateral tail vein of 6 to 8-week old female BALB/c nude mice (n=12/group). Tumor growth in bones and lungs was monitored weekly by GFP imaging in live animals. Mice were culled 28 days after tumor cell injection at which timepoint hind limbs, lungs and serum were resected and processed for microcomputed tomography imaging (pCT), histology and ELISA analysis of bone turnover markers and circulating cytokines as described (Holen et al., 2016).
# Whole blood was centrifuged at 10,000×g for 5 minutes and the serum removed for ELISA assays. The cell pellet was re-suspended in 5 ml of FSM lysis solution (Sigma-Aldrich, Pool, UK) to lyse red blood cells. Remaining cells were re-pelleted, washed 3× in PBS and re-suspended in a solution of PBS/10% FCS. Samples from 10 mice per group were pooled prior to isolation of TdTomato positive tumor cells using a MoFlow High performance cell sorter (Beckman Coulter, Cambridge UK) with the […] laser line from a Coherent I-90C tenable argon ion (Coherent, Santa Clara, Calif.). TdTomato fluorescence was detected by a 555LP dichroic long pass and a 580/30 nm band pass filter. Acquisition and analysis of cells was performed using Summit 4.3 software. After sorting, cells were immediately placed in RNA protect cell reagent (Ambion, Paisley, Renfrew, UK) and stored at −80° C. before RNA extraction. For counting numbers of circulating tumor cells, TdTomato fluorescence was detected using a 561 nm laser and an YL1-A filter (585/16 emission filter). Acquisition and analysis of cells was performed using Attune N×T software.
# [4] = test system: CD34+ blood vessels in trabecular bone; experiment: Bone microvasculature after suppression of IL-1β signalling; format: in vivo, BALB/c nude mice and C57BL/6 mice
# Protocol: FIG. 7. IL-1β in the bone microenvironment stimulates expansion of the bone metastatic niche. Effects of adding 40 pg/ml or 5 ng/ml recombinant IL-1β to MDA-MB-231 or T47D breast cancer cells is shown in (a) and effects on adding 20 pg/ml, 40 pg/ml or 5 ng/ml IL-1B on proliferation of HS5, bone marrow, or OB1, osteoblasts, are shown in b) and c) respectively. (d) IL-1 driven alterations to the bone vasculature was measured following CD34 staining in the trabecular region of the tibiae from 10-12-week old female IL-1R1 knockout mice. […] Data are shown as mean+/−SEM, *=P<0.01, **=P<0.001, ***=P<0.0001.
# FIG. 8. Suppression of IL-1β signalling affects bone integrity and vasculature. […] Data shown are mean+/−SEM, *=P<0.01, **=P<0.001, ***=P<0.0001 compared with control.
# as §2
compound,measurement,setting,value
CC(=O)O[C@@]12CO[C@@H]1C[C@H](O)[C@@]1(C)C(=O)[C@H](O)C3=C(C)[C@@H](OC(=O)[C@H](O)[C@@H](NC(=O)OC(C)(C)C)c4ccccc4)C[C@@](O)([C@@H](OC(=O)c4ccccc4)[C@H]21)C3(C)C [docetaxel],efficacy (tumor growth),LL2,modest efficacy
same,granulocytic MDSC,4T1 tumors; 5 days after a single dose,decrease in granulocytic MDSC
same,neutrophils in 4T1 tumors,4T1 tumors; 5 days after a single dose,decrease in neutrophils
same,CD4+ and CD8+ T cells expressing TIM-3,"4T1 tumors; four days after a second dose, vs control group",no change in the TIM-3 expressing cells
same,tumor growth,"4T1 tumors; treated days 8 and 15 post tumor implant, vs vehicle/isotype control",delay was enhanced
CN(C)C(=O)c1cc2cnc(Nc3ccc(N4CCNCC4)cn3)nc2n1C1CCCC1 [ribociclib],progression-free survival (PFS),[1],significantly prolonged progression-free survival
"gevokizumab: high-affinity, humanized monoclonal antibody of the IgG2 isotype to interleukin-1β",Bioavailability,[2]; administered subcutaneously,about 56%
same,pharmacokinetic model,[2]; after subcutaneous administration,linear two-compartment model with first order absorption
same,reduction of hsCRP,hsCRP,up to 45%
same,animals with significant reduction in tumor volume,SW480; one of two experiments,100 % of animals
same,animals with slower tumor growth,"SW480; second experiment, compared to isotype control",80 % of animals
IL-1Ra: IL-1R antagonist (Anakinra) used to inhibit IL-1β signaling,mice with metastasis detected in human bone implants,"[3]; IL-1Ra 1 mg/kg daily, canakinumab sc every 14 days, from 7 days after tumor cell injection, control 7 out of 10",4 out of 10
same,size of bone metastases,"[3]; luciferase imaging, vs control group",smaller than those detected in the control group
same,tumor cells counted in whole blood,[3]; placebo 108 tumor cells/ml,3 tumor cells/ml
same,average length of CD34+ blood vessels in trabecular bone,"[4]; IL-1Ra 1 mg/kg daily (BALB/c nude), canakinumab single dose (C57BL/6), p<0.01",reduced the average length
same,endothelin 1 concentration (ELISA),"[4]; compared with control, p<0.01",reduced concentrations
same,VEGF concentration (ELISA),"[4]; compared with control, p<0.01 IL-1R antagonist, p<0.001 canakinumab",reduced concentrations

# Reference: patent publication US20220056123A1, “USE OF IL-1BETA BINDING ANTIBODIES” (NOVARTIS AG, priority 2018, published 2022)
